The values below come from ChEMBL document CHEMBL1127902, “Synthesis of -estradiol-3-benzoate-17-(succinyl-12A-tetracycline): A potential bone-seeking estrogen” (Bioorg Med Chem Lett, 1994).

The assay can be described thus: Percent of compound bound to bone mineral hydroxylapatite was determined […]. To be noted: Bone element.

Turning to `C[C@]12CC[C@@H]3c4ccc(OC(=O)c5ccccc5)cc4CC[C@H]3[C@@H]1CC[C@@H]2O`, the Binding is less than 1%.
With `C[C@]12CC[C@@H]3c4ccc(O)cc4CC[C@H]3[C@@H]1CC[C@@H]2O`, the Binding was less than 1%.
The same measure for `CN(C)[C@@H]1C(O)=C(C(N)=O)C(=O)[C@@]2(O)C(O)=C3C(=O)c4c(O)cccc4[C@@](C)(O)[C@H]3C[C@@H]12`: more than 99%; for `CN(C)[C@@H]1C(=O)C(C(N)=O)=C(O)[C@@]2(OC(=O)CCC(=O)O[C@H]3CC[C@H]4[C@@H]5CCc6cc(OC(=O)c7ccccc7)ccc6[C@H]5CC[C@]34C)C(O)=C3C(=O)c4c(O)cccc4[C@@](C)(O)C3CC12` (some centres undefined): more than 99%.
